Experimental data as given in the supplement of paper PMC10307832.

Key:
Test in all cases: relative viability (nuclei count vs DMSO), 5 days (fraction); higher = more cells survive
Cediranib + Alpelisib = compound: COc1cc2c(Oc3ccc4[nH]c(C)cc4c3F)ncnc2cc1OCCCN1CCCC1 [Cediranib] + Cc1nc(NC(=O)N2CCC[C@H]2C(N)=O)sc1-c1ccnc(C(C)(C)C(F)(F)F)c1 [Alpelisib] (partner 2 µM)
Method in brief: (§1)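 Relative viability is defined as nuclei in treated wells over nuclei in vehicle wells. Duplicate plates were run and medians reported. Lung cancer cell lines in 1536-well plates were dosed by pin tool one day after seeding, with one drug or with a fixed anchor-drug dose plus five library-drug doses (not always all listed) in √10 steps, and nuclei were counted after 5 days.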

[1] = compound: O=C(C[C@H]1NCCC[C@@H]1O)Cn1cnc2cc(Br)c(Cl)cc2c1=O (racemic) [Halofuginone] + CC(C)C[C@H](NC(=O)[C@H](Cc1ccccc1)NC(=O)c1cnccn1)B(O)O [Bortezomib] (partner 0.002 µM)
Method in brief: as §1

[2] = compound: O=C(C[C@H]1NCCC[C@@H]1O)Cn1cnc2cc(Br)c(Cl)cc2c1=O (racemic) [Halofuginone] + C[C@]1(O)C[C@@H](c2nc(-c3ccc4ccc(-c5ccccc5)nc4c3)c3c(N)nccn32)C1 [Linsitinib] (partner 1 µM)
Method in brief: as §1

Halofuginone + Dasatinib = compound: O=C(C[C@H]1NCCC[C@@H]1O)Cn1cnc2cc(Br)c(Cl)cc2c1=O (racemic) [Halofuginone] + Cc1nc(Nc2ncc(C(=O)Nc3c(C)cccc3Cl)s2)cc(N2CCN(CCO)CC2)n1 [Dasatinib] (partner 0.075 µM)
Method in brief: as §1

UMC-11
relative viability (Cediranib + Alpelisib; first compound 0.04 µM): 1.06
relative viability (Cediranib + Alpelisib; first compound 0.1265 µM): 0.879
relative viability (Cediranib + Alpelisib; first compound 0.4 µM): 0.934
relative viability (Cediranib + Alpelisib; first compound 1.265 µM): 0.984
relative viability (Cediranib + Alpelisib; first compound 4 µM): 0.922
relative viability ([1]; first compound 0.001 µM): 0.683
relative viability ([1]; first compound 0.003162 µM): 0.775
relative viability ([1]; first compound 0.01 µM): 0.684
relative viability ([1]; first compound 0.03162 µM): 0.689
relative viability ([1]; first compound 0.1 µM): 0.645
relative viability ([2]; first compound 0.001 µM): 1.09
relative viability ([2]; first compound 0.003162 µM): 0.99
relative viability ([2]; first compound 0.01 µM): 1.03
relative viability ([2]; first compound 0.03162 µM): 0.963
relative viability ([2]; first compound 0.1 µM): 0.752
relative viability (Halofuginone + Dasatinib; first compound 0.001 µM): 0.472
relative viability (Halofuginone + Dasatinib; first compound 0.003162 µM): 0.427
relative viability (Halofuginone + Dasatinib; first compound 0.01 µM): 0.407
relative viability (Halofuginone + Dasatinib; first compound 0.03162 µM): 0.357
relative viability (Halofuginone + Dasatinib; first compound 0.1 µM): 0.293
